Laboratory results as given in patent US20230053540A1, “TREATMENT OF LIVER INJURY” (Massachusetts Institute of Technology, priority 2019, published 2023).

System: hepatocytes
Experiment: Seq-Well scRNA-Seq of hepatocytes after APAP overdose (signature scores, DEG vs untreated)
Type: in vivo, mouse
Conditions: A96 vs untreated (UT)

SMILES: CC(=O)Nc1ccc(O)cc1 [APAP, acetaminophen]
- Herpud1 avg_logFC: 0.3333
- Herpud1 pct.1: 0.9
- Hhex avg_logFC: 0.3209
- Hhex pct.1: 0.543
- Hmgcl avg_logFC: 0.353
- Hmgcl pct.1: 0.871
- Hmgcs1 avg_logFC: 0.2967
- Hmgcs1 pct.1: 0.858
- Hmgcs2 avg_logFC: 0.4234
- Hmgcs2 pct.1: 0.996
- Hnf4a avg_logFC: 0.2824
- Hnf4a pct.1: 0.858
- Hpgd avg_logFC: 0.3398
- Hpgd pct.1: 0.588
- Hpx avg_logFC: −0.264
- Hpx pct.1: 0.998
- Hrg avg_logFC: 0.4095
- Hrg pct.1: 0.923
- Hsd3b5 avg_logFC: −0.7981
- Hsd3b5 pct.1: 0.25
- Hsd17b7 avg_logFC: 0.3056
- Hsd17b7 pct.1: 0.56
- Hsd17b10 avg_logFC: 0.3092
- Hsd17b10 pct.1: 0.841
- Hspa8 avg_logFC: 0.4257
- Hspa8 pct.1: 0.905
- Igfbp4 avg_logFC: 0.4189
- Igfbp4 pct.1: 0.964
- Ildr2 avg_logFC: 0.2509
- Ildr2 pct.1: 0.356
- Insig2 avg_logFC: 0.3594
- Insig2 pct.1: 0.928
- Iqgap2 avg_logFC: 0.2645
- Iqgap2 pct.1: 0.799
- Kif1b avg_logFC: 0.3909
- Kif1b pct.1: 0.686
- Lcat avg_logFC: 0.3294
- Lcat pct.1: 0.886
- Lifr avg_logFC: −0.4875
- Lifr pct.1: 0.556
- Lipa avg_logFC: 0.4376
- Lipa pct.1: 0.791
- Lpgat1 avg_logFC: 0.275
- Lpgat1 pct.1: 0.671
- Lpin2 avg_logFC: 0.2841
- Lpin2 pct.1: 0.781
- Lrrc58 avg_logFC: 0.2641
- Lrrc58 pct.1: 0.543
- Man2a1 avg_logFC: 0.3324
- Man2a1 pct.1: 0.737
- Maob avg_logFC: 0.2722
- Maob pct.1: 0.708
- Mat1a avg_logFC: 0.9328
- Mat1a pct.1: 1
- Mettl7b avg_logFC: 0.3784
- Mettl7b pct.1: 0.949
- Mfsd2a avg_logFC: 0.3802
- Mfsd2a pct.1: 0.41
- Mia3 avg_logFC: 0.3563
- Mia3 pct.1: 0.81
- Mt1 avg_logFC: 0.638
- Mt1 pct.1: 0.839
- Mt2 avg_logFC: 0.3136
- Mt2 pct.1: 0.548
- Mtdh avg_logFC: 0.321
- Mtdh pct.1: 0.649
- Mttp avg_logFC: 0.2755
- Mttp pct.1: 0.816
- Mup3 avg_logFC: −0.4098
- Mup3 pct.1: 1
- Mup5 avg_logFC: −1.266
- Mup5 pct.1: 0.538
- Mup6 avg_logFC: −2.021
- Mup6 pct.1: 0.778
- Mup7 avg_logFC: −1.145
- Mup7 pct.1: 0.938
- Mup8 avg_logFC: −0.7871
- Mup8 pct.1: 0.067
- Mup9 avg_logFC: −1.818
- Mup9 pct.1: 0.619
- Mup11 avg_logFC: −1.559
- Mup11 pct.1: 0.905
- Mup12 avg_logFC: −0.8331
- Mup12 pct.1: 0.571
- Mup15 avg_logFC: −1.239
- Mup15 pct.1: 0.156
- Mup16 avg_logFC: −1.119
- Mup16 pct.1: 0.567
- Mup17 avg_logFC: −1.889
- Mup17 pct.1: 0.98
- Mup18 avg_logFC: −1.297
- Mup18 pct.1: 0.928
- Mup19 avg_logFC: −1.258
- Mup19 pct.1: 0.973
- Mup21 avg_logFC: −0.94
- Mup21 pct.1: 0.676
- Ncl avg_logFC: 0.2809
- Ncl pct.1: 0.731
- Ndrg2 avg_logFC: 0.3802
- Ndrg2 pct.1: 0.985
- Nfe2l1 avg_logFC: 0.2902
